Measurements published in patent publication US20030198690A1, “Device and method for treating restenosis” (Medical Research Fund of Tel Aviv Sourasky Medical Center, priority 2002, published 2003).

Experiments:
Wistar rats = test: Balloon dilation carotid injury in rats, morphometric and immunohistochemical analysis of arteries; format: in vivo
Description: (§1) Carotid injury was induced in Wistar rats by balloon dilation according to a conventional model (Clowes A W, Reidy M A, Clowes M M. Kinetic of cellular proliferation after arterial injury. Lab Invest 1983; 49:327-334). Rats were then injected daily i.p. with either zinc (at a concentration of 5 mg/kg) or saline (control) for 2 weeks until sacrifice. Arteries were taken for morphometeric and immunohistochemical analysis.

[1] = Levels of serum zinc in treated rats; format: in vivo, Wistar rats; details: zinc 5 mg/kg i.p. daily for 2 weeks; p<0.01 vs control rats
Description: as §1
Levels of serum zinc were elevated in the zinc-treated rats (248.2±19.4 pg/ml) as compared to the control rats (136.8±7.2 pg/ml; p<0.01).

[Zn] [zinc]
inflammatory cell infiltrate (NF-κB and iNOS positive cells) (Wistar rats; immunohistochemical staining of arteries, zinc 5 mg/kg i.p. daily for 2 weeks): a reduction was evident
external elastic lamina size (Wistar rats; zinc 5 mg/kg i.p. daily for 2 weeks after carotid balloon injury): without influencing
neointimal area (Wistar rats; zinc 5 mg/kg i.p. daily for 2 weeks after carotid balloon injury, FIG. 1): reduced
neointimal/medial ratio (Wistar rats; zinc 5 mg/kg i.p. daily for 2 weeks after carotid balloon injury, FIG. 2): reduced
Levels of serum zinc [1]: 0.2482 ± 0.0194 ng/mL
